# Patent US20260345605A1, “THERAPEUTIC AGENTS FOR HEART FAILURE” (Ottawa Hospital Research Institute, priority 2023, published 2026)
# What was measured:
# [1] = tested on: cardiac angiogenesis (CD31); test: Cardiac angiogenesis by CD31 staining in PE rat model; format: in vivo, Sprague Dawley rat
# Description: (§1) Animal Model Preparation. Sprague Dawley rats were continuously treated with phenylephrine (PE), an α-adrenergic agonist that causes vasoconstriction leading to increased afterload and decreased ventricular function, to create a left-ventricular dysfunction animal model. […] For chronic infusion of phenylephrine, Alzet® mini-osmotic pumps (2002, Durect® Corp) containing Phenylephrine (PE) (10 mg/kg/day) or PBS vehicle were surgically implanted dorsally and subcutaneously in each Sprague Dawley rat under isoflurane anaesthesia. The animals were allowed to develop left ventricular hypertrophy for 2 weeks following the osmotic pump implantation.
# (§2) Echocardiography was performed, the animals were sacrificed at 3 weeks endpoint and the blood and tissue were harvested for further analysis.
# The rat model was prepared as described in Example 12, and the cardiac tissue harvested at the end of the 3 weeks was prepared for CD31 Staining, which is a histological technique used to visualize and assess angiogenesis in cardiac tissue.
# collagen type I = test: Collagen type I immunofluorescence in NRVM; format: cell-based, neonatal rat
# Description: Primary NRVMs were seeded at a density of 2.7×10^5 cells directly onto 25 mm diameter collagen-coated glass coverslips. The treatments with control (PE) and drugs LY283519 were performed for 24 hours. […] Post treatment, the cells were washed three times in PBS followed by fixation in 4% paraformaldehyde for 30 min. Cells were then permeabilized in blocking buffer (1% bovine serum albumin (BSA), 2% normal goat serum, 0.4% Tx-100 in PBS) for 15 min and were incubated for 2 h at room temperature with primary a Actinin and collagen type I antibody, followed by three successive washes in PBS in a humidified chamber. Cells were then blocked again in blocking buffer for 15 min followed by a 1-hour incubation in fluorescently conjugated secondary antibody. Cells were then washed again in PBS and the nuclei were counterstained with 4′,6-diamidino-2-phenylindole (DAPI). The cells were mounted onto microscope slides with Dako Cytomation fluorescent mounting medium (Dako). Digital fluorescent images were obtained using the Zeiss AxioVision SE64 Imaging software and analyzed using ImageJ2 software.
# [2] = tested on: iPS cell-derived cardiomyocytes (iCell Cardiomyocytes); test: Secondary screening: morphometric analysis of iCell Cardiomyocytes; format: cell-based, human
# Text: A library of 800 small molecule compounds that can stimulate favorable cardiac adaptation in primary neonatal rat ventricular myocytes (NRVM) was screened. To identify the beneficial modifiers of hypertrophy, the Cellomics Arrayscan High Throughput Screening platform was employed to quantify morphometric features such as, for example, length, width, and length to width ratio from images acquired using a 10× lens for DAPI-labeled nuclei and CY3 labeled α actinin stained cardiomyocytes in a 96 well format. The lead compound was also screened in iPSC derived cardiomyocytes as a part of secondary screening as it offers a physiologically relevant human cell-based model.
# (§3) A secondary screening was performed with 10 drugs identified from primary screening for their ability to induce physiological remodeling using morphometric analysis and measuring the levels of B-type natriuretic peptide (BNP), as a surrogate indicator of the hypertrophic response using ELISA. The compounds were selected based on the highly enriched targets identified in the drug set enrichment analysis with a high Z score. Cryopreserved iPS cell-derived cardiomyocytes (“iCell Cardiomyocytes”) obtained from Cellular Dynamics International (CDI, Madison, WI) were used as a cell model to perform the screening.
# The cells were plated at a density of 2.5×10^4 cells onto 25 mm diameter fibronectin coated glass coverslips in plating media for 48 hours. The media was replaced with Supplemented William's E (SWE) medium (SWE) media supplemented with cocktail containing penicillin-streptomycin, ITS+(insulin, transferrin, selenium complex, BSA, and linoleic acid), GlutaMAX™, and HEPES (Primary Hepatocyte Maintenance Supplements-GIBCO) for 48 hours. The cells were treated with controls (CT1-40 ng/mL, PE-100 uM) and drugs (AZD1152-HQPA, LY283519) at varying concentrations (2.5, 1, 0.5, and 0.25 uM) for 24 hours.
# Post treatments, the cells were washed, fixed and treated with primary antibody, secondary antibody similar to the protocol of Example 3. The effect on the morphometric parameters was assessed using Cellomics Arrayscan Vti HCS reader. The Image acquisition was performed using the Zeiss AxioVision SE64 Imaging software and analyzed using the ImageJ2 software.
# iCell cardiomyocytes were seeded at a density of 10,000 cells per well in a 96 well plate format. The cells were maintained as in Example 3 and were treated with controls (hCT1, PE) and drugs (AZD1152-HQPA, LY283519) at four different concentrations for 24 hours. The cells were then fixed and stained with a Actinin for cardiomyocytes followed by nuclear staining with DAPI. The plates were analyzed in Cellomics Arrayscan Vti HCS reader to assess morphometric changes following treatment.
# cardiomyocytes (NRVMs) = test: Oxygen consumption rate of cardiomyocytes (Seahorse Mito Stress Test); format: cell-based, neonatal rat; settings: 24 h treatment; vs untreated control; FIG. 12
# Description: OCR detection of cardiomyocytes was conducted with the Seahorse Xfe 24 analyzer (Agilent, Santa Clara, USA). Cardiomyocytes were seeded at a density of 8×10^4/well in a special Seahorse 24-well plate (102342-100, Seahorse). After treating with hCT1, PE and drug for 24 h, the medium was replaced with XF medium containing 10 mM D-(+)-glucose (G7021, Sigma-Aldrich), and 1 mM sodium pyruvate (11360070, Thermo Fisher). The plates were placed in a CO2-free 37 °C incubator for an hour before the measurement. A Seahorse XF Cell Mito Stress Test Kit (103015-100, Seahorse) was used for detection. The basal respiration of the NRVMs was detected, and ATP-linked OCR was analyzed after treatment with 1 μM oligomycin (ATP synthase inhibitor). Then, the uncoupling agent carbonyl [COMPOUND LEFT OUT] 4-(trifluoromethoxy) phenylhydrazone (FCCP) 0.5 μM was injected to detect maximal respiration. Finally, rotenone and antimycin A (AR) were used to abolish mitochondrial respiration by inhibiting complexes I and III, respectively.
# [3] = tested on: NT Pro-BNP (iCell Cardiomyocyte); test: NT Pro-BNP ELISA in iCell Cardiomyocyte supernatants; format: cell-based, human; settings: 24 hour; for Mean NT Pro-BNP levels: iCell Cardiomyocyte, UT 2407.521; for Pro-NT BNP levels compared to UT and CT1 treated cells: iCell cardiomyocytes
# Description: as §3
# Pro-NT BNP levels in the culture media were measured following the 24 hour treatment using the Human NT Pro-BNP DuoSet ELISA kit (R&D Systems, Minnesota USA) as per the manufacturer's instruction. […] The plates were read on BMG BioTek Molecular Devices SpectraMax Microplate Reader at 450 nm to obtain the optical density followed by reading at 540 nm for wavelength correction.
# Protein levels were identified by plotting a 4 parametric logistic regression curve using the standards provided with the kit.
# cardiac fibrosis = test: Cardiac fibrosis by Masson's trichome staining in PE rat model; format: in vivo, Sprague Dawley rat
# Description: as §1, §2
# The rat model was prepared as described in Example 12, and the cardiac tissue harvested at the end of the 3 weeks was prepared with Masson's trichome staining methodology, which is a histological technique used to visualize and assess connective tissue, particularly collagen, within biological samples.
# [4] = PE, compared to control sham animals
# [5] = single treatment, 24 hours, vs control
smiles,measurement,setting,value
"CNC[C@H](O)c1cccc(O)c1 [PE, phenylephrine]",CD31 staining,[1]; [4],significantly decreased CD31 staining
same,expression of collagen type I,collagen type I; [5],increased expression of type I collagen compared to control
same,Mean Cardiomyocyte Length,"[2]; 24 h, 100 µM",191 µm
same,oxygen consumption rate (OCR),cardiomyocytes (NRVMs),reduced oxygen consumption rate
same,Mean NT Pro-BNP levels,[3]; control PE,3236.015 pg/mL
same,Pro-NT BNP levels compared to UT and CT1 treated cells,[3],significantly elevated levels
same,cardiac fibrosis,cardiac fibrosis; [4],significant increase in cardiac fibrosis
CCN1CCN(Cc2ccc(Nc3ncc(F)c(-c4cc(F)c5nc(C)n(C(C)C)c5c4)n3)nc2)CC1 [LY2835219],cardiac angiogenesis,[1]; LY2835219 in PE treated animals,improve angiogenesis
same,cardiac angiogenesis,[1]; LY2835219 treatment,increased angiogenesis
same,expression of collagen type I,collagen type I; PE for 24 hrs followed by LY2835219 for 24 hrs,decreased expression of collagen type I
same,expression of collagen type I,collagen type I; [5],decrease in expression of collagen type I
same,Mean Cardiomyocyte Length,"[2]; iCell Cardiomyocyte, drug 0.25 μm, 24 hours, UT 213.01323",221 µm
same,Mean Cardiomyocyte Length,"[2]; iCell Cardiomyocyte, drug 0.5 μm, 24 hours, UT 213.01323",239 µm
same,Mean Cardiomyocyte Length,"[2]; iCell Cardiomyocyte, drug 1 μm, 24 hours, UT 213.01323",242 µm
same,Mean Cardiomyocyte Length,"[2]; iCell Cardiomyocyte, drug 2.5 μm, 24 hours, UT 213.01323",245 µm
same,Eccentric cardiac remodeling,"[2]; iCell cardiomyocyte, 1 uM, FIG. 4A",Eccentric cardiac remodeling was observed
same,cardiomyocyte length compared with CT1 treated cells,"[2]; iCell cardiomyocytes on coverslips, 24 hours",comparable cardiomyocyte length
same,length in iCell cardiomyocyte compared to hCT1,"[2]; iCell cardiomyocytes, 96 well, four concentrations, 24 hours",increased length in iCell cardiomyocyte comparable to length induced by hCT1
same,oxygen consumption rate (OCR),cardiomyocytes (NRVMs),increase the rate of oxygen consumption
same,Mean NT Pro-BNP levels,[3]; drug 0.25 μm,1232.484 pg/mL
same,Mean NT Pro-BNP levels,[3]; drug 0.5 μm,1226.226 pg/mL
same,Mean NT Pro-BNP levels,[3]; drug 2.5 μm,1747.475 pg/mL
same,Pro-NT BNP levels compared to UT and CT1 treated cells,[3],comparable and/or reduced BNP levels
same,cardiac fibrosis,cardiac fibrosis; LY2835219 in animals subjected to PE treatment,did reduce fibrosis
same,cardiac fibrosis,cardiac fibrosis; LY2835219 treatment alone,did not induce fibrosis
